Results on 14 compounds are retold here after patent US20230303540A1 (Merck Sharp & Dohme LLC, priority 2020, published 2023).

The target of the assay is GST-tagged truncated human mutant G2019S LRRK2 (Homo sapiens, UniProt Q5S007, G2019S). In words: LRRK2 G2019S Km ATP LanthaScreen assay. Conditions: 134 μM ATP (Km ATP), LRRKtide substrate, mean IC50 values; read-out: LRRK2 pIC50 (converted). The assay is classed as biochemical. In short, it runs like this:
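LanthaScreen TR-FRET read with fluorescein-LRRKtide and 134 μM ATP (Km) in Tris pH 8.5/10 mM MgCl2 buffer. The enzyme was preincubated 15 min with compound at room temperature, and the reaction ran 90 min at ambient temperature. Stopped with EDTA plus Tb anti-phospho-LRRKtide antibody; the 520/495 nm ratio gave a 4-parameter logistic IC50, mean of several runs.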
A general note: Time-resolved FRET reads energy transfer from a long-lived donor to a nearby acceptor.
`Clc1cc2cnc(Nc3cnn(C45CC(C4)C5)c3Cl)nc2cc1N1CCC2(CCCO2)CC1` [Ex-3.40, N-[1-(bicyclo[1.1.1]pentan-1-yl)-5-chloro-1H-pyrazol-4-yl]-6-chloro-7-(1-oxa-8-azaspiro[4.5]decan-8-yl) quinazolin-2-amine]: the IC50 was 9.76 nM.

For the compound `CNc1cc2nc(Nc3cnn(C4CCN(C5(C)COC5)CC4)c3Cl)ncc2cc1Cl` [Ex-3.44, 6-chloro-N~2~-{5-chloro-1-[1-(3-methyloxetan-3-yl)piperidin-4-yl]-1H-pyrazol-4-yl}-N~7~-methyl-quinazoline-2,7-diamine], the IC50 is 19.5 nM.

On to `CCNc1cc2nc(Nc3cnn(C4CCN(C5(C)COC5)CC4)c3Cl)ncc2cc1Cl` [Ex-3.45, 6-chloro-N~2~-{5-chloro-1-[1-(3-methyloxetan-3-yl)piperidin-4-yl]-1H-pyrazol-4-yl}-N~7~- ethylquinazoline-2,7-diamine], for which the IC50 is 23.5 nM.

`CC(C)Nc1cc2nc(Nc3cnn(C4CCN(C5(C)COC5)CC4)c3Cl)ncc2cc1Cl` [Ex-3.46]: the IC50 was 15 nM.

As to `CC(C)Nc1ccc2cnc(Nc3cnn(C4CCN(C5(C)COC5)CC4)c3Cl)nc2c1Cl` [Ex-3.53, 8-chloro-N~2~-{5-chloro-1-[1-(3-methyloxetan-3-yl)piperidin-4-yl]-1H-pyrazol-4-yl}-N~7~- (propan-2-yl)quinazoline-2,7-diamine], the IC50 was 6.88 nM.

Turning to `CC1(O)CCN(c2cc3nc(Nc4cnn(C5CC5)c4Cl)ncc3cc2C#N)CC1` [Ex-3.54, 2-[(5-chloro-1-cyclopropyl-1H-pyrazol-4-yl)amino]-7-(4-hydroxy-4-methylpiperidin-1-yl)quinazoline-6-carbonitrile], the IC50 is 8.43 nM.

As for `Cc1cc2cnc(Nc3cnn(C4CC4)c3Cl)nc2cc1N1CCC(C)(O)CC1` [Ex-3.55, 1-{2-[(5-chloro-1-cyclopropyl-1H-pyrazol-4-yl)amino]-6-methylquinazolin-7-yl}-4-methylpiperidin-4-ol], the IC50 is 12.1 nM.

Consider `Cc1c(N2CCN(C3(C)COC3)CC2)c(Cl)cc2cnc(Nc3cnn(CC(F)(F)F)c3)nc12` [Ex-4.3, 6-Chloro-8-methyl-7-(4-(3-methyloxetan-3-yl)piperazin-1-yl)-N-(1-(2,2,2-trifluoroethyl)-1H-pyrazol-4-yl)quinazolin-2-amine], for which the IC50 is 3.36 nM.

On to `O=C1C2CCC(C2)N1c1ccc2cnc(Nc3ccn(CC(F)(F)F)n3)nc2c1` (centres unmarked) [Ex-4.8, 2-(2-{[1-(2,2,2-trifluoroethyl)-1H-pyrazol-3-yl]amino}quinazolin-7-yl)-2-azabicyclo[2.2.1]heptan-3-one], for which the IC50 is 8.95 nM.

Consider `CC(C)Nc1ccc2cnc(Nc3cnn(C4CCN(C5(C)COC5)CC4)c3)nc2c1` [Ex-4.9, N~2~-{1-[1-(3-methyloxetan-3-yl)piperidin-4-yl]-1H-pyrazol-4-yl}-N~7~-(propan-2-yl)quinazoline-2,7-diamine], for which the IC50 was 9.16 nM.

On to `CC1CCN1c1cc2nc(Nc3cnn(C4CN(CC(C)(C)O)C4)c3)ncc2cc1Cl` (centres unmarked) [Ex-4.10, 1-[3-(4-{[6-chloro-7-(2-methylazetidin-1-yl)quinazolin-2-yl]amino}-1H-pyrazol-1-yl)azetidin-1-yl]-2-methylpropan-2-ol], for which the IC50 is 34.3 nM.

Take `CC1CCN1c1cc2nc(Nc3cnn(C4CCN(C5(C)COC5)CC4)c3)ncc2cc1Cl` (centres unmarked) [Ex-4.11, 6-chloro-7-(2-methylazetidin-1-yl)-N-{1-[1-(3-methyloxetan-3-yl)piperidin-4-yl]-1H-pyrazol-4-yl}quinazolin-2-amine]: the IC50 is 35.3 nM.

For `Cc1c(Nc2ncc3cc(Cl)c(N4CCN(C5(C)COC5)CC4)cc3n2)cnn1CCF` [Ex-4.12, 6-chloro-N-[1-(2-fluoroethyl)-5-methyl-1H-pyrazol-4-yl]-7-[4-(3-methyloxetan-3-yl)piperazin-1-yl]quinazolin-2-amine], the IC50 is 0.625 nM.

In the case of `CCn1ncc(Nc2ncc3cc(Cl)c(N4CCN(C5(C)COC5)CC4)cc3n2)c1C` [Ex-4.13, 6-chloro-N-(1-ethyl-5-methyl-1H-pyrazol-4-yl)-7-[4-(3-methyloxetan-3-yl)piperazin-1-yl]quinazolin-2-amine], the IC50 is 6.83 nM.
